These compounds were tested against T1, Tyrosine-protein phosphatase non-receptor type 1 (Homo sapiens, UniProt P18031) (assay: Inhibition of human recombinant PTP1B after 30 mins).
T1 sequence (P18031 whole entry): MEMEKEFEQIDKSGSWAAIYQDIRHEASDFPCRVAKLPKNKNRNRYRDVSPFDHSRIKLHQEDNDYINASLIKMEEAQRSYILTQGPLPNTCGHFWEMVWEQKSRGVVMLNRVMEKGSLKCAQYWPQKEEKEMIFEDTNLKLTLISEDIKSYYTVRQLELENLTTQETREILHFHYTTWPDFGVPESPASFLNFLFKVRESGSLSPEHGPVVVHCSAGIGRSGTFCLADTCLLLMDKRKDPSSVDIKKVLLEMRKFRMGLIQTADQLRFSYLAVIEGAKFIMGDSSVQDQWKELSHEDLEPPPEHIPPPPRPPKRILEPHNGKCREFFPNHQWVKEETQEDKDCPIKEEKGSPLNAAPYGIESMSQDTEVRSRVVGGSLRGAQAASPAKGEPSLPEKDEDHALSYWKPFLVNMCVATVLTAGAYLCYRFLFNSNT
In the case of CCCCCCCCCCCCCCCC(=O)C1=C(O)[C@@H](CO)OC1=O, the IC50 is reported as 4.1 µM.
C[C@@]1(CO)CC[C@]2(C(=O)O)CC[C@]3(C)C(=CC[C@@H]4[C@@]5(C)CC[C@@H](O)[C@](C)(CO)[C@@H]5CC[C@]43C)[C@@H]2C1 was tested, and the IC50 was greater than 30 µM.
C[C@H]1[C@H](C)CC[C@]2(C(=O)O)CC[C@]3(C)C(=CC[C@@H]4[C@@]5(C)CC[C@@H](O)[C@](C)(CO)[C@@H]5CC[C@]43C)[C@H]12 gave an IC50 greater than 30 µM.
C[C@@H]1CC[C@]2(C(=O)O)CC[C@]3(C)C(=CC[C@@H]4[C@@]5(C)CCC(=O)[C@](C)(CO)[C@@H]5CC[C@]43C)[C@@H]2[C@]1(C)O gave an IC50 of 8.1 µM.
C[C@H]1[C@H](C)CC[C@]2(C(=O)O)CC[C@]3(C)C(=CC[C@@H]4[C@@]5(C)CC[C@H](O)[C@](C)(CO)[C@@H]5CC[C@]43C)[C@H]12 was tested, and the IC50 was 12.8 µM.
Work on C[C@@H]1CC[C@]2(C(=O)O)CC[C@]3(C)C(=CC[C@@H]4[C@@]5(C)CC[C@@H](O)[C@](C)(CO)[C@@H]5CC[C@]43C)[C@@H]2[C@]1(C)O [BARBINERVIC ACID] yielded an IC50 greater than 30 µM.
In the case of C=C1CC[C@]2(C(=O)O)CC[C@]3(C)C(=CC[C@@H]4[C@@]5(C)CC[C@@H](O)[C@](C)(CO)[C@@H]5CC[C@]43C)[C@@H]2[C@]1(C)O [COUSSARIC ACID], the IC50 is reported as greater than 30 µM.
Compound C=C1CC[C@]2(C(=O)O)CC[C@]3(C)C(=CC[C@@H]4[C@@]5(C)CC[C@@H](O)[C@](C)(C(=O)O)[C@@H]5CC[C@]43C)[C@@H]2[C@]1(C)O [DIOSPYRIC ACID A] has an IC50 greater than 30 µM.
C[C@@H]1CC[C@]2(C(=O)O)CC[C@]3(C)C(=CC[C@@H]4[C@@]5(C)CC[C@@H](O)[C@](C)(C(=O)O)[C@@H]5CC[C@]43C)[C@@H]2[C@]1(C)O [DIOSPYRIC ACID B] was tested, and the IC50 was greater than 30 µM.
For CC1(C)CC[C@]2(C(=O)O)CC[C@]3(C)C(=CC[C@@H]4[C@@]5(C)CCC(=O)C(C)(C)[C@@H]5CC[C@]43C)[C@@H]2C1 [OLEANONIC ACID], the IC50 was 3.5 µM.
Compound C[C@@H]1CC[C@]2(C(=O)O)CC[C@]3(C)C(=CC[C@@H]4[C@@]5(C)CC[C@H](O)C(C)(C)[C@@H]5CC[C@]43C)[C@@H]2[C@]1(C)O [POMOLIC ACID] has an IC50 of 3.9 µM.
C[C@@H]1CC[C@]2(C(=O)O)CC[C@]3(C)C(=CC[C@@H]4[C@@]5(C)CC[C@H](O)[C@](C)(CO)[C@@H]5CC[C@]43C)[C@@H]2[C@]1(C)O [ROTUNGENIC ACID] was tested, and the IC50 was 10.9 µM.
With CC1(C)CC[C@]2(C(=O)O)CC[C@]3(C)C(=CC[C@@H]4[C@@]5(C)CC[C@@H](O)[C@](C)(CO)[C@@H]5CC[C@]43C)[C@@H]2C1 [SCUTELLARIC ACID] the IC50 was greater than 30 µM.
In the case of CC1(C)CC[C@]2(C(=O)O)CC[C@]3(C)C(=CC[C@@H]4[C@@]5(C)CC[C@H](O)[C@](C)(CO)[C@@H]5CC[C@]43C)[C@@H]2[C@@H]1O [SPATHODIC ACID], the IC50 is reported as 18.8 µM.

Source: ChEMBL document CHEMBL1140124, “Triterpenoids from the leaves of Diospyros kaki (persimmon) and their inhibitory effects on protein tyrosine phosphatase 1B” (J Nat Prod, 2008)
